Laboratory results published in EP4467141A1, “PYRAZOLO-QUINOLINES AS SELECTIVE INHIBITORS OF GENOTOXIC STRESS-INDUCED IKK/NF- KB PATHWAYS FOR CANCER THERAPY” (Max-Delbrück-Centrum für Molekulare Medizin in der …, priority 2023, dated 2024).

Tests used:
Assay in all cases: Kinase panel study
Format in all cases: biochemical
Details in all cases: read-out: Percentage of inhibition; for inhibition at 1 µM: 1000nM; for inhibition at 10 µM: 10000nM
[1] = molecular target: T1, SGKL (SGK3) (Homo sapiens, UniProt Q96BR1)
T1 construct: purchased Thermo Fisher Scientific
T1 sequence (Q96BR1 1-496): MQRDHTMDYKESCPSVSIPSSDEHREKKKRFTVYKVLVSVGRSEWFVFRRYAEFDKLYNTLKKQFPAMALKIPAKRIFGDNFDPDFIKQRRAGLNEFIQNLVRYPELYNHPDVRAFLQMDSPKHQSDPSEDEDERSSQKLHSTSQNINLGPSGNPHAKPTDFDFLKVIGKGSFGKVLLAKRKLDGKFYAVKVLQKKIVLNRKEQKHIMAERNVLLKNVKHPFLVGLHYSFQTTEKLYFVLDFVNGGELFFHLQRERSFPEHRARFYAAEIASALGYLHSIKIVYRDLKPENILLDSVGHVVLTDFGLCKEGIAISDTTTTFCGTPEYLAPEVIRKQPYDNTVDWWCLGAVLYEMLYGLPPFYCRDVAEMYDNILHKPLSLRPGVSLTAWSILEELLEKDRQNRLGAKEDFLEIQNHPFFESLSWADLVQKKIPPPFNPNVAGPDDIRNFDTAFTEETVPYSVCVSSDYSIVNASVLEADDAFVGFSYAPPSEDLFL
Procedure, shortened: (§1)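 Readout is percentage kinase inhibition. Testing used 1 µM or 10 µM compound in externally run ZLyte/Adapta in vitro assays, and IC50 values were derived within the same panel.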

[2] = molecular target: T2, EGFR (ErbB1) L858R (Homo sapiens, UniProt P00533, L858R)
T2 construct: purchased Thermo Fisher Scientific
T2 sequence (P00533 25-1210 L858R): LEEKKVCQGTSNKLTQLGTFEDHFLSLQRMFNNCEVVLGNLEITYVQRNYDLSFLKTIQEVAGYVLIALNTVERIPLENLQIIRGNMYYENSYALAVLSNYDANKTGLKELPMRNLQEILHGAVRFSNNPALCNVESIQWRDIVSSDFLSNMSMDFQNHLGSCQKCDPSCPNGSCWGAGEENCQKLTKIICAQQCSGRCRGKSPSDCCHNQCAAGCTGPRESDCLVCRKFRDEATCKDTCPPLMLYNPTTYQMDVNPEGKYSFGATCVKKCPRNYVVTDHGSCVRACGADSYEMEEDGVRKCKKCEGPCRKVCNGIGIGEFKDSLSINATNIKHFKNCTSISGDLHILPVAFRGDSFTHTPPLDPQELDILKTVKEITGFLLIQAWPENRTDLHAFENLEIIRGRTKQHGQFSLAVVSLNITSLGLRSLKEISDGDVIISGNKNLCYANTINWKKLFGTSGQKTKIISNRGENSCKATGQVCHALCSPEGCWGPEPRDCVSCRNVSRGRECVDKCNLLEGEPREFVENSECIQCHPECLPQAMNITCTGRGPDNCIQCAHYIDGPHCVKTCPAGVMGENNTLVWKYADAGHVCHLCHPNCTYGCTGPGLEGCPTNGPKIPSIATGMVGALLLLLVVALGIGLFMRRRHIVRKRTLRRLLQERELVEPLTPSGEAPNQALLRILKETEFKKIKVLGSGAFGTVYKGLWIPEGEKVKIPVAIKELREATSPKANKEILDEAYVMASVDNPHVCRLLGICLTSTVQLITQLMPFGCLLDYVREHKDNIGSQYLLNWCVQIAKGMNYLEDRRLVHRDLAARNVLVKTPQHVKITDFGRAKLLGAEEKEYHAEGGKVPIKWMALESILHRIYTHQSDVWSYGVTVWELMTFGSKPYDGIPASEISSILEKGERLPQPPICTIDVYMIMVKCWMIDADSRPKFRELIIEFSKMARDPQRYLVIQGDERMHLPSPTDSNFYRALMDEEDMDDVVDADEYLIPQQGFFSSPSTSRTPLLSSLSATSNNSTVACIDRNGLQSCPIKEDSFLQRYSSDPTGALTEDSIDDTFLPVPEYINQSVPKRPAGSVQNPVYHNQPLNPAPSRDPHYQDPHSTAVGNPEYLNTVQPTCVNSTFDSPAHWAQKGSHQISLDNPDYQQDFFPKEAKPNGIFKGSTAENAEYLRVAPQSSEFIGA
Procedure, shortened: as §1

[3] = molecular target: T3, STK25 (YSK1) (Homo sapiens, UniProt O00506)
T3 construct: purchased Thermo Fisher Scientific
T3 sequence (O00506 whole entry): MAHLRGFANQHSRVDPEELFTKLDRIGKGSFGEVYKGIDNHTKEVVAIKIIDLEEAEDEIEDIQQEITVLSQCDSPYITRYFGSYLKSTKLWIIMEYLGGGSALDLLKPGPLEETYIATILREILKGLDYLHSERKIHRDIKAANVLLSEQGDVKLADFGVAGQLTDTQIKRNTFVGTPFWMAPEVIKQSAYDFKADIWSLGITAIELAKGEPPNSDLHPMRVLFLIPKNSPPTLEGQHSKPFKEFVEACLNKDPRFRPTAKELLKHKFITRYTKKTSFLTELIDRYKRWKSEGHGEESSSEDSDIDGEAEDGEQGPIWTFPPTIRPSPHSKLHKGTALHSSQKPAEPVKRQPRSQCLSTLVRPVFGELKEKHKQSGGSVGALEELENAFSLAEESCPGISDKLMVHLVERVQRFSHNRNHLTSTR
Procedure, shortened: as §1

[4] = molecular target: T4, PAK2 (PAK65) (Homo sapiens, UniProt Q13177)
T4 construct: purchased Thermo Fisher Scientific
T4 sequence (Q13177 whole entry): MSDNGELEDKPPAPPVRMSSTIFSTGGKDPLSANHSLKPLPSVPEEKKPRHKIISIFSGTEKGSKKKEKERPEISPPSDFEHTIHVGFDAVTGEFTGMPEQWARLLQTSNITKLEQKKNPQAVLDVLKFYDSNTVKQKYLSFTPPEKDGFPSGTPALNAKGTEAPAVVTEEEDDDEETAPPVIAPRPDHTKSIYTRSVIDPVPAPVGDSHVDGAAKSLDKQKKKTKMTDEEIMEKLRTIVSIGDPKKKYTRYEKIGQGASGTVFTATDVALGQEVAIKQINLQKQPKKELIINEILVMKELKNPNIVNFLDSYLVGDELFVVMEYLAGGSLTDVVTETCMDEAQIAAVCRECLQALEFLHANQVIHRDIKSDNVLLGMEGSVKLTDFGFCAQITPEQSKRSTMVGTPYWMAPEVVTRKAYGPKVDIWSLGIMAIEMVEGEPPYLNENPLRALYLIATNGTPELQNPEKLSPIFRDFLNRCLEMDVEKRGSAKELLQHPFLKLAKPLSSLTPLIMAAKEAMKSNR
Procedure, shortened: as §1

[5] = molecular target: T5, CDC42 BPG (MRCKG) (Homo sapiens, UniProt Q6DT37)
T5 construct: purchased Thermo Fisher Scientific
Procedure, shortened: as §1

[6] = molecular target: T6, PRKD2 (PKD2) (Homo sapiens, UniProt Q9BZL6)
T6 construct: purchased Thermo Fisher Scientific
T6 sequence (Q9BZL6 1-878): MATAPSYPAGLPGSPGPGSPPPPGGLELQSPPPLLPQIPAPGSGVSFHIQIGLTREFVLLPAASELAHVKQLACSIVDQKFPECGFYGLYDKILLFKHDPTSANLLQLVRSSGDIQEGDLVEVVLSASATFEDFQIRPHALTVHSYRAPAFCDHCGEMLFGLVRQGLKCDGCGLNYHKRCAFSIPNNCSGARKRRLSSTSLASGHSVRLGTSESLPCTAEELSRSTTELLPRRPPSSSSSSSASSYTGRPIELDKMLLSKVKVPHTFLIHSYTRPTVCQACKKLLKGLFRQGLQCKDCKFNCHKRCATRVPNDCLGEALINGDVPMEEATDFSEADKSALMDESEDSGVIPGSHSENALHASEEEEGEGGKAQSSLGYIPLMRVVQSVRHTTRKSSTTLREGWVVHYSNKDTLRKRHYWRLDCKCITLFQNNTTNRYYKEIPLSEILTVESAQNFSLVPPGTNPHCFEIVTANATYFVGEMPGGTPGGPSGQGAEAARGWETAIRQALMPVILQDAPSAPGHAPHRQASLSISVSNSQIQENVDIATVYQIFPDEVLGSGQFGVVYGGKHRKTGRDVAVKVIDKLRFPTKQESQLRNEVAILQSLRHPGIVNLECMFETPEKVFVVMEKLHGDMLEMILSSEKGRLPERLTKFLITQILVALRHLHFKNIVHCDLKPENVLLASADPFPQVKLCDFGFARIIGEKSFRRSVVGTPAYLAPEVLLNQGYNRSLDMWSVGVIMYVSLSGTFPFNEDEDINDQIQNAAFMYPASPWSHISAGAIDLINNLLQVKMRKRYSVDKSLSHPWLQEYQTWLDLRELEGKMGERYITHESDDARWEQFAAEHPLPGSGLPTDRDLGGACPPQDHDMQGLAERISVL
Procedure, shortened: as §1

[7] = molecular target: T7, DAPK1 (Homo sapiens, UniProt P53355)
T7 construct: purchased Thermo Fisher Scientific
Procedure, shortened: as §1

[8] = molecular target: T8, CDK2/cyclin A (Homo sapiens, UniProt P24941)
T8 construct: purchased Thermo Fisher Scientific
Procedure, shortened: as §1

[9] = molecular target: T9, RPS6KA3 (RSK2) (Homo sapiens, UniProt P51812)
T9 construct: purchased Thermo Fisher Scientific
Procedure, shortened: as §1

[10] = molecular target: T10, LRRK2 FL (Homo sapiens, UniProt Q5S007)
T10 construct: LRRK2 FL; purchased Thermo Fisher Scientific
T10 sequence (Q5S007 whole entry): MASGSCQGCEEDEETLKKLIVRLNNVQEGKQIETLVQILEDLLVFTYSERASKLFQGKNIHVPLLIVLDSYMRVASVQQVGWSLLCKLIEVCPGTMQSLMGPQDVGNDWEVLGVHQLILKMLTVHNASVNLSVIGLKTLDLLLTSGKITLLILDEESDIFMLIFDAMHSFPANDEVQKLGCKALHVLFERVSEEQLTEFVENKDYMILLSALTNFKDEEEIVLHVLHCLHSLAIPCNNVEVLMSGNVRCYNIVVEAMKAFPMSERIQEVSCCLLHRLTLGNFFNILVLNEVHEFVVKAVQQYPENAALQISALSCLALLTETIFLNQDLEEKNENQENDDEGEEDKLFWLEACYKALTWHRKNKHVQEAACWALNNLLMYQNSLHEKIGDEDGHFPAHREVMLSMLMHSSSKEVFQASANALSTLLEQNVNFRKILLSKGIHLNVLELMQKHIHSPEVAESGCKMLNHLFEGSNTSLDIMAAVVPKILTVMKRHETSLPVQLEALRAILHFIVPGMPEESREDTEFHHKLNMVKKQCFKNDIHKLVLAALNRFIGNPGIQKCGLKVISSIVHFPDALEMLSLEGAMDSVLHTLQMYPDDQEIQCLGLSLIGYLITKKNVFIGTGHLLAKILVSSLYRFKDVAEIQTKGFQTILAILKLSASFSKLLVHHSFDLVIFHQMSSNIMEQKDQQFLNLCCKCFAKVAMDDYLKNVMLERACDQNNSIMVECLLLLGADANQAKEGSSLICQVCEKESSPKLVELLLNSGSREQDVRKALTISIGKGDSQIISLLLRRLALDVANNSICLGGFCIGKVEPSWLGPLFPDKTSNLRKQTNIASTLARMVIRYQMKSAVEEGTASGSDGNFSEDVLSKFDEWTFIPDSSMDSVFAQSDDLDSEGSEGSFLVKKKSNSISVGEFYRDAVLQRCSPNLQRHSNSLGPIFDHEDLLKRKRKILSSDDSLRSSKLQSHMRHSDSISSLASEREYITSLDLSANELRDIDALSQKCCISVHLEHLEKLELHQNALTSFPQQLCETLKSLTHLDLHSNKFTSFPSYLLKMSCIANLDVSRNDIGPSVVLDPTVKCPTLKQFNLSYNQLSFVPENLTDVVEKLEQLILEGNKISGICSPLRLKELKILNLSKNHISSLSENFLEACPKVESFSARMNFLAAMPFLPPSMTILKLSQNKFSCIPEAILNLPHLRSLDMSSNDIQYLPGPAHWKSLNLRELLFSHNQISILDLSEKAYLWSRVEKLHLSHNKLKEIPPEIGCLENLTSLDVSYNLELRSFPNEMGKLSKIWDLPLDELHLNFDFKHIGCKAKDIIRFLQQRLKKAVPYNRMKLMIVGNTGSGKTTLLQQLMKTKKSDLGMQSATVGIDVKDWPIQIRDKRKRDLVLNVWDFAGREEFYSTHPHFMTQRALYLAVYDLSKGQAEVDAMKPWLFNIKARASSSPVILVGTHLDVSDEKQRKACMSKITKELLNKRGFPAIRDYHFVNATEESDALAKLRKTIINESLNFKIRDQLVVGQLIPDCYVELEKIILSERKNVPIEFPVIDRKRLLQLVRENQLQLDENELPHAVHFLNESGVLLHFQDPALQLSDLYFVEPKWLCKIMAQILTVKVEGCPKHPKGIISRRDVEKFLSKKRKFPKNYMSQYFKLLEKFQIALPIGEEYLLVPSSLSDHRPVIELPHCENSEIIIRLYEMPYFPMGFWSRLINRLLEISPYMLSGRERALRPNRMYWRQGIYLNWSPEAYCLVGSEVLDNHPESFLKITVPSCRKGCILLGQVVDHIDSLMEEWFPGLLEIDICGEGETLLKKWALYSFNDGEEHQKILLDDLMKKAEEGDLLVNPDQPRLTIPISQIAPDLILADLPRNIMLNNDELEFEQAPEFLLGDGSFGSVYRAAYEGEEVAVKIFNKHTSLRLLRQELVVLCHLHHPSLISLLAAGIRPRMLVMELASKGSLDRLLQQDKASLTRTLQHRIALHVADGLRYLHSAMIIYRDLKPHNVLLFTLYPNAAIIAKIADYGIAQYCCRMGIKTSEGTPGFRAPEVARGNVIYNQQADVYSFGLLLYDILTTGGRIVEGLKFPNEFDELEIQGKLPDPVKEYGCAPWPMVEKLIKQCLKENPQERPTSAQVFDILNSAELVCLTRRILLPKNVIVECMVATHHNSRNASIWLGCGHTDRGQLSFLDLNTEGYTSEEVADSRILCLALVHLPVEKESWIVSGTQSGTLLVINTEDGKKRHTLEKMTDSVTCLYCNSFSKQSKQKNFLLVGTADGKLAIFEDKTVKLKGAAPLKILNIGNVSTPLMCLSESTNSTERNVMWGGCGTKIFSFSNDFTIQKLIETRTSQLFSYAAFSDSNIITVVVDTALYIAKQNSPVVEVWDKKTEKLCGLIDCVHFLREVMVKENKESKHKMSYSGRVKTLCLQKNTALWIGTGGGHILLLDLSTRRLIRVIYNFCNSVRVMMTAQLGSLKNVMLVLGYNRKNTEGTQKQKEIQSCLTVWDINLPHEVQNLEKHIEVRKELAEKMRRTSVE
Procedure, shortened: as §1

Row | SMILES | inhibition at 1 µM [1] | inhibition at 10 µM [1] | inhibition at 1 µM [2] | inhibition at 10 µM [2] | inhibition at 1 µM [3] | inhibition at 10 µM [3] | inhibition at 1 µM [4] | inhibition at 10 µM [4] | inhibition at 1 µM [5] | inhibition at 10 µM [5] | inhibition at 1 µM [6] | inhibition at 10 µM [6] | inhibition at 1 µM [7] | inhibition at 10 µM [7] | inhibition at 1 µM [8] | inhibition at 10 µM [8] | inhibition at 1 µM [9] | inhibition at 10 µM [9] | inhibition at 1 µM [10] | inhibition at 10 µM [10]
1 | COc1ccc2c(c1OC)c(=O)n1c3ccc(O)cc3c3ccnc2c31 [MW01, 5-Hydroxy-10,11-dimethoxy-9H-benzo[c]indolo[3,2,1-ij][1,5]naphthyridin-9-one] | 12% | 10% | 3% | 5% | -9% | -3% | 14% | 7% | 1% | 5% | 38% | 71% | 8% | 14% | 14% | 37% | 5% | 10% | 85% | 90%
2 | COc1ccc2cc3c(N)nn(C(=O)c4cccc(N(C)C)c4)c3nc2c1 [MW05, (3-Amino-7-methoxypyrazolo[3,4-b]quinolin-1-yl)-[3-(dimethylamino)phenyl]methanone] | 8% | 6% | 6% | 16% | -3% | -11% | 14% | 4% | 0% | 0% | 11% | 10% | 3% | 3% | 12% | 25% | 3% | 2% | -6% | 6%
